Measured values as given in patent publication US12508276B2, “Use of ginsenoside M1 for treating Huntington's disease” (priority 2018, dated 2025).

Assays:
AMPK = test: Phosphorylation level of AMPK by Western blotting; type: cell-based, mouse; settings: STHdh^Q109 cells, 24 h, vs vehicle-treated STHdh^Q109 cells, FIG. 3
Protocol: Activation of AMPK promotes the pathogenesis of HD [37]. To investigate whether ginsenoside M1 inhibited AMPK activation, […]7 and […] cells were treated with 10 and 30 μM ginsenoside M1 or vehicle (DMSO) for 24 h. The phosphorylation level of AMPK was measured by Western blotting.

mHtt aggregate = test: mHtt aggregates in striatal lysates, filter retardation assay; type: in vivo, mouse; settings: R6/2 mice, 30 mg/kg oral daily for 4 weeks from age of 7 weeks, FIG. 9
Protocol: Mice were treated daily with ginsenoside M1 (30 mg/kg of body weight, oral administration) or vehicle for 4 weeks from the age of 7 weeks. The amount of mHtt aggregates in striatal lysates was analyzed by a filter retardation assay. Brain tissues were suspended and homogenized in ice-cold THE buffer, mixed with 2% SDS. Samples were first passed through OE66 membrane filters ([…] pore size; Whatman Schleicher and Schuell, Middlesex, UK) in a slot-blot manifold (Bio-Rad, Irvine, CA, USA). Insoluble aggregates retained on the filters were detected using an anti-Htt antibody.

R6/2 mice [1] = test: Lifespan of HD disease mice; type: in vivo, mouse; settings: 30 mg/kg oral daily for 4 weeks from age of 7 weeks, FIG. 8
Protocol: (§1) Mice were treated daily with ginsenoside M1 (30 mg/kg of body weight, oral administration) or vehicle for 4 weeks from the age of 7 weeks, and the lifespan of mice was determined. […] Results were expressed as means±SEM. Multiple groups were analyzed by one-way analysis of variance (ANOVA) followed by a post hoc Student-Newman-Keuls test. ^ap<0.05: between WT and R6/2-vehicle mice. ^bp<0.05: compared to R6/2-vehicle mice.

R6/2 mice [2] = test: Motor coordination, rotarod apparatus assay in HD disease mice; type: in vivo, mouse; settings: 30 mg/kg oral daily for 4 weeks from age of 7 weeks, rotarod 12 rpm, 2 min, FIG. 7
Protocol: as §1, with “weeks. Motor coordination was assessed using a rotarod apparatus assay (UGO BASILE, Comerio, Italy) at a constant speed (12 rpm) over a period” for “weeks, and the lifespan”, “2 min.” for “mice was determined.”

γH2AX = test: Expression level of γH2AX by Western blot; type: cell-based, mouse; settings: STHdh^Q109 cells, 24 h, vs vehicle-treated STHdh^Q109 cells, FIG. 5
Protocol: ATM is now known to regulate DNA repair through the activation of γH2AX. To investigate whether ginsenoside M1 inhibited the expression level of γH2AX, […]7 and […] cells were treated with 10 and 30 μM ginsenoside M1 or vehicle (DMSO) for 24 h. The expression level of γH2AX was measured by Western blot.

ATM = test: Phosphorylation level of ATM by Western blot; type: cell-based, mouse; settings: STHdh^Q109 cells, 24 h, vs vehicle-treated STHdh^Q109 cells, FIG. 4
Protocol: ATM is activated by DNA damage and plays important role in the phosphorylation of AMPK. To investigate whether ginsenoside M1 inhibited ATM activation, […]7 and […] cells were treated with 10 and 30 μM ginsenoside M1 or vehicle (DMSO) for 24 h. The phosphorylation level of ATM was measured by Western blot.

STHdh^Q109 cells [3] = test: MTT reduction assay, survival rate of mHtt expression cells; type: cell-based, mouse; settings: 24 h
Text: Conditionally immortalized wild-type […]7 striatal neuronal progenitor cells expressing endogenous normal htt (referred to as wild-type striatal cells), and homozygous mutant […] striatal neuronal progenitor cells from homozygous […] knock-in mice expressing mutant htt with 109 glutamines (referred to as mutant striatal […] and […] cells were generous gifts from Dr. Elena Cattaneo and […] (Department of pharmacological sciences and centre for stem cell research, University of Milano, Italy). These cells were maintained in an incubation chamber at 33° C. in Dulbecco's modified Eagle's medium (DMEM) supplemented with 10% fetal bovine serum (FBS). […]7 and […] cells were treated with 30 μM ginsenoside M1 or vehicle (DMSO) for 24 h. […]7 and […] cells death was quantified by the MTT reduction assay. […] At the end of experiments, cells were incubated in culture medium with 0.5 mg/ml MTT at 37° C. for 2 h. The culture medium was then replaced with DMSO to dissolve the MTT formazan precipitates, which was followed by the measurement of the absorbance at 570 nm using a microplate reader (OPTImax tunable plate reader, Molecular Device, Sunnyvale, CA, USA). The survival rate of the indicated cells was normalized to those survival rate of untreated (vehicle-treated) […]7 cells. As shown in the FIG. 1A, the survival rate of untreated (vehicle-treated) […] cells was lower than that of untreated (vehicle-treated) […]7 cells. […] To confirm the cyto-protective effect of ginsenoside […] cells were treated with 1, 10 and 30 μM ginsenoside M1 or vehicle (DMSO) for 24 h. […] The results are express as the means±SEM of triplicate samples.

p53 = test: Phosphorylation level of p53 by Western blot; type: cell-based, mouse; settings: STHdh^Q109 cells, 24 h, vs vehicle-treated STHdh^Q109 cells, FIG. 6
Protocol: p53 plays a role in the regulation of the cell cycle and apoptosis. p53 becomes activated in response to DNA damage and oxidative stress. To investigate whether ginsenoside M1 inhibited the phosphorylation level of […]7 and […] cells were treated with 10 and 30 μM ginsenoside M1 or vehicle (DMSO) for 24 h. The phosphorylation level of p53 was measured by Western blot.

STHdh^Q109 cells [4] = test: Cellular ROS production (H2DCFDA fluorescence); type: cell-based, mouse; settings: 1 h, FIG. 2
Protocol: Oxidative stress is one of the important events triggers cell death in STHdh^Q109 cells. To investigate whether ginsenoside M1 inhibited cell death of STHdh^Q109 cells by reducing oxidative stress, STHdh^Q109 cells were treated with 1, 10 and 30 μM ginsenoside M1 or vehicle (DMSO) in the presence of 10 μM intracellular ROS indicator fluorescent probe 2,7-dichlorodihydrofluorescein diacetate (H2DCFDA; Molecular Probes, Inc., Eugene, Oregon, USA) for 1 h. Cellular ROS contents were measured by detecting the fluorescence intensity (Excitation/Emission: 488 nm/510 nm) using a fluorescence plate reader (Fluoroskan Ascent; Thermo Electron Corporation, Woburn, MA, USA). […] The results are express as the means±SEM of triplicate samples. Multiple groups will analyze with one-way analysis of variance (ANOVA), follow by a post-hoc Student-Newman-Keuls test. p value of <0.05 will considered significant. ^ap<0.05: compared to untreated (vehicle-treated) STHdh^Q109 cells.

CC(C)=CCC[C@](C)(O[C@@H]1O[C@H](CO)[C@@H](O)[C@H](O)[C@H]1O)[C@H]1CC[C@]2(C)[C@@H]1[C@H](O)C[C@@H]1[C@@]3(C)CC[C@H](O)C(C)(C)[C@@H]3CC[C@]12C [ginsenoside M1, 20-O-β-D-glucopyranosyl-20(S)-protopanaxadiol]
phosphorylation level of AMPK (AMPK; 10 μM): significantly reduced | phosphorylation level of AMPK (AMPK; 30 μM): significantly reduced | mHtt aggregate formation in the striatum (mHtt aggregate): reduced | lifespan (R6/2 mice [1]): significantly prolonged | motor coordination (R6/2 mice [2]): increased significantly | expression level of γH2AX (γH2AX; 10 μM): significantly reduced | expression level of γH2AX (γH2AX; 30 μM): significantly reduced | phosphorylation level of ATM (ATM; 10 μM): significantly reduced | phosphorylation level of ATM (ATM; 30 μM): significantly reduced | survival rate (STHdh^Q109 cells [3]; 10 μM, FIG. 1B): significantly increased | survival rate (STHdh^Q109 cells [3]; 30 μM, FIG. 1A): significantly increased | survival rate (STHdh^Q109 cells [3]; 30 μM, FIG. 1B): significantly increased | phosphorylation level of p53 (p53; 10 μM): significantly reduced | phosphorylation level of p53 (p53; 30 μM): significantly reduced | ROS production (STHdh^Q109 cells [4]; 10 μM): significantly reduced | ROS production (STHdh^Q109 cells [4]; 30 μM): significantly reduced
